# Experimental data reported in US11655253B2, “CBP/catenin signaling pathway inhibitors and uses thereof” (3+2 Pharma, LLC, priority 2020, dated 2023).
# “Also recorded” adds a separate entry of the source.
# Key:
# [1] = system: β-catenin binding to p300; test: Co-immunoprecipitation assay in SW480 cells, p300 IP; assay type: cell-based
# Protocol: (§1) FIG. 4A and FIG. 4B, show, according to further non-limiting aspects of the present invention, a co-immunoprecipitation assay that was performed in SW480 cells as previously described (Emami K. et al. PNAS USA, 2004 Aug. 24; 101 (34): 12682-7) to further confirm that the positive control compound ICG-001 and [3+2]-117 selectively disrupt β-catenin binding to CBP (FIG. 4A), while enhancing the binding of β-catenin to p300 (FIG. 4B). Immunoprecipitation of β-catenin with CBP was inhibited by ICG-001 at 10 μM ([…]) and by [3+2]-117 at 500 nM. […] Quantification of the immunoblotting data based upon pixelation is shown below the immunoblots.
# [2] = molecular target: T1, β-catenin binding to CBP (Homo sapiens, UniProt Q92793); test: Co-immunoprecipitation assay in SW480 cells, CBP IP; assay type: cell-based; conditions: 10 μM
# T1 construct: endogenous in cells; host or cells: SW480 colorectal cancer cells
# T1 sequence (Q92793 whole entry): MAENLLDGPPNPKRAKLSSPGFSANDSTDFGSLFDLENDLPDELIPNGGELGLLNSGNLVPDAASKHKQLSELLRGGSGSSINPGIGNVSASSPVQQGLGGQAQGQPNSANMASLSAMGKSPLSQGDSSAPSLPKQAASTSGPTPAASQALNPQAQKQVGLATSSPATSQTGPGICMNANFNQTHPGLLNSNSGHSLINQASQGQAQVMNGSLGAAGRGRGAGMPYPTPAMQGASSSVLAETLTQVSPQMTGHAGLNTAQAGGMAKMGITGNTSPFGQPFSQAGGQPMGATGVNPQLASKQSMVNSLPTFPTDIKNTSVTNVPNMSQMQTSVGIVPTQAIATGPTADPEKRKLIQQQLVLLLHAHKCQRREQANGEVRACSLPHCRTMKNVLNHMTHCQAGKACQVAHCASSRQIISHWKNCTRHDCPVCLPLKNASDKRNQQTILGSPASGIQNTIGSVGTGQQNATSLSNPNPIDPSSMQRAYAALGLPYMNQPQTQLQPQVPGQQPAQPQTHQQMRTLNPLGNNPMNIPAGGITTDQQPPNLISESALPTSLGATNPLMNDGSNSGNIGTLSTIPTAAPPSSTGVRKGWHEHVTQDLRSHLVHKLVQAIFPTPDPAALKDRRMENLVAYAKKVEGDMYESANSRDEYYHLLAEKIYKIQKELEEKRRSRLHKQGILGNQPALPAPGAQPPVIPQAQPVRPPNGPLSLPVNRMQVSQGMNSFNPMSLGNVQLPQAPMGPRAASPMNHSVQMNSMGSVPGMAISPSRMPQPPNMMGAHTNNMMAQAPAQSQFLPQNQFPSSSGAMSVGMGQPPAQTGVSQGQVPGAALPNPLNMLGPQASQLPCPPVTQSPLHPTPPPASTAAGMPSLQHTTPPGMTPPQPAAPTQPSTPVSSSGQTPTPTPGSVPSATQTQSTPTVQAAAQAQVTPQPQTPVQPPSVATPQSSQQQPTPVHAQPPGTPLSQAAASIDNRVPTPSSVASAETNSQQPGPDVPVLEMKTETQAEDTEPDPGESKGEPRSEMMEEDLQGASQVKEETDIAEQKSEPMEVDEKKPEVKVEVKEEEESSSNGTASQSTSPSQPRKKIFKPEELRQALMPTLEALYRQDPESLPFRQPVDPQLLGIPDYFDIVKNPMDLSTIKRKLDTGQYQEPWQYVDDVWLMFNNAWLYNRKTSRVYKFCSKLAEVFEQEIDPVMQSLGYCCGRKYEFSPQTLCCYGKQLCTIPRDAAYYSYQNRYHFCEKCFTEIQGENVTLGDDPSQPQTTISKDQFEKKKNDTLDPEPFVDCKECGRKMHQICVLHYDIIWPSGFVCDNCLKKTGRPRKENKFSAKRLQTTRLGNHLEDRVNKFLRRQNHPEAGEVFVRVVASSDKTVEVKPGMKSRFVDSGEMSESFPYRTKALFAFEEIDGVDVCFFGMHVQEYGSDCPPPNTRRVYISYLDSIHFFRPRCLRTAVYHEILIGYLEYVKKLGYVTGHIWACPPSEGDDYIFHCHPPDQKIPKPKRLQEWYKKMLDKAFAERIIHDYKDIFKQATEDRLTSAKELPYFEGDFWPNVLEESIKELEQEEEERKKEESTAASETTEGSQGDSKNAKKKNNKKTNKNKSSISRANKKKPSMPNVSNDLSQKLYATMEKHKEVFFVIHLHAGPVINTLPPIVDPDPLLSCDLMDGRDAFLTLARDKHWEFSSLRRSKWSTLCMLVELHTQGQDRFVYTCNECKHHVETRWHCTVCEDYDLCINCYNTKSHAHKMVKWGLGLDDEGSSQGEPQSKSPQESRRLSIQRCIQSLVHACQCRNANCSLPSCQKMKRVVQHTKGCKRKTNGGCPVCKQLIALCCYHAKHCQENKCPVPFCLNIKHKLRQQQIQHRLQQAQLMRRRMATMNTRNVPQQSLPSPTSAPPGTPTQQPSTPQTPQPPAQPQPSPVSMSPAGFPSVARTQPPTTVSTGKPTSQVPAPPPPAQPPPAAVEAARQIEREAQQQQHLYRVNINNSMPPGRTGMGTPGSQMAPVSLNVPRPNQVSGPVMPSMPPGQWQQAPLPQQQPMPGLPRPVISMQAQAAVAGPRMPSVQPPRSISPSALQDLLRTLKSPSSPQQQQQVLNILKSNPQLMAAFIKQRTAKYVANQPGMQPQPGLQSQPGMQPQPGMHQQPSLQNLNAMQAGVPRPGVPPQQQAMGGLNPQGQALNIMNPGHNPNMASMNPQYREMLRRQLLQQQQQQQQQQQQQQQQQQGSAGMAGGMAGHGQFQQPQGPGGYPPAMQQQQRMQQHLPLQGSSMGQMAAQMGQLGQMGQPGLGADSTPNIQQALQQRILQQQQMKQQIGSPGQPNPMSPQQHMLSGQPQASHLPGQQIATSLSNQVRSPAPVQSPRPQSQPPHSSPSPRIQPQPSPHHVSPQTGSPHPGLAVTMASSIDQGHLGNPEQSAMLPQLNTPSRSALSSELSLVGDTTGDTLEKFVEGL
# Protocol: as §1
# [3] = system: NC/Nga mice atopic dermatitis model; test: NC/Nga mouse model of atopic dermatitis; assay type: in vivo; conditions: for TEWL (transepidermal water loss) compared to vehicle control / dermatitis scores compared to vehicle control: topical once daily Day 0-13; for TEWL (transepidermal water loss) compared to vehicle control: day 14; for mean body weight versus Vehicle group: any day during the treatment period
# Protocol: NC/Nga mice (female) were obtained from CHARLES RIVER LABORATORIES JAPAN INC. Mice were randomized into […] of 8 mice on Day 0 based on their body weight and dermatitis score. Eight NC/Nga mice were topically administered test compound-containing [3+2]-121A (compound 34) ointment (in a volume of 100 mg) once daily from Day 0 to Day 13, or vehicle control (hydrophilic petrolatum).
# Representative test substance [3+2]-121A was formulated in hydrophilic petrolatum at low (100 uM) and high (500 uM) dosages (referred to in the study as [3+2]-121A and [3+2]-121B, respectively). 7-week-old female NC/Nga mice were used. The first induction of atopic dermatitis was performed three weeks before compound administration, for which the mice were shaved of hair on their backs and behind the ears with a clipper and a shaver. Then the mice had their hair removed completely with a depilatory agent (Epilat™, Kracie Home Products, Ltd.) before 100 mg of Biostir AD® ointment was applied to the shaved dorsal skin and both surfaces of each ear evenly with a plastic spoon. The second induction of atopic dermatitis was performed subsequently. The mice were shaved of hair on their backs and behind the ears, then 150 μl of 4% sodium lauryl sulfate solution was applied to the back and behind the ears with a plastic spoon. After this, it was dried with a hair dryer (cold air) and then left to dry naturally for about 1 to 2 hours. 100 mg of Biostir AD® ointment was applied to the shaved dorsal skin and both surfaces of each ear evenly with a plastic spoon. This procedure was repeated twice a week for three weeks. Twenty-four atopic dermatitis model mice were sorted into 3 groups of 8 mice based on their body weight and dermatitis severity score on the morning at Day 0. Vehicle control (hydrophilic petrolatum), [3+2]-121A or [3+2]-121B was administered topically in a volume of 100 mg once daily from Day 0 to Day 13. Body weight and food consumption were measured once a week at Day 0, 7 and 14. The severity of dermatitis was evaluated at Day 0, 3, 7, 10 and 14. The development of 1) erythema/hemorrhage, 2) scarring/dryness, 3) edema, 4) excoriation/erosion were scored as 0 (none), 1 (mild), 2 (moderate) and 3 (severe). The sum of the individual scores was taken as the dermatitis score. The TEWL was evaluated at Day 0 and at Day 14 after administration. Histological analyses were performed on lower neck dorsal skin and auricle that were fixed in 10% neutral formalin, embedded in paraffin and sectioned at 3-4 μm sections and stained with hematoxylin-eosin using Carrazzi's hematoxylin solution. For analysis of the skin area, bright field images of HE-stained sections were randomly captured using a digital camera (DS-Fi3; Nikon) at 2 and 4-fold magnification. Statistical analyses were performed using Prism Software 6 (GraphPad Software, USA). Statistical analyses were performed using Dunnett's Comparison Test. Comparisons were made between the following groups; Group 1 (Vehicle) vs. Group 2 ([3+2]-121A) and Group 3 ([3+2]-121B). P values <0.05 were considered statistically significant. Results were expressed as mean±SD.
# [4] = system: bleomycin induced model of IPF in mice; test: Bleomycin induced mouse model of idiopathic pulmonary fibrosis; assay type: in vivo; conditions: for overall survival and Ashcroft scoring versus historical control data for pirfenidone and nintedanib: from day 7 after bleomycin for 2 weeks; for extracellular collagen deposition (Masson's trichrome blue staining) compared to bleomycin saline treated historical control / survival: all treatment groups; for survival: to day 21; for Ashcroft score / Left lung weight / Post-caval lobe weight / Body weight: n = 3, mean +/− SD; for Body weight: day of sacrifice
# Description: Bleomycin induced model of IPF.
# Results. […] FIGS. 8A-8E are as follows: historical bleomycin saline treated control (8A, “ID:103”); [3+2]-120A low dose (8B, “ID:102”); [3+2]-120A high dose (8C, “ID:201”); [[3+2]-120B low dose (8D, ID:302”); and [3+2]-120B high dose (8E, ID:401”).
# [5] = system: patients with HCV cirrhosis; conditions: intravenous, cited from earlier work
# [6] = system: memory CD4+ T-cells in SIVmac251-infected RMs; conditions: ART-suppressed SIVmac251-infected RMs; cited from earlier work
# [7] = system: STAM mouse model of NASH-HCC; test: STAM mouse model of NASH-HCC; assay type: in vivo, mice; conditions: after 4 weeks of treatment, vehicle 5 out of 8
# Protocol: In the vehicle control treated group only 5 out of 8 mice survived, whereas in the 3+2]-120A at 100 mg/kg/day (A-low) and 400 mg/kg/day (A-high), 7 out of 8 and 8 out of 8 mice survived respectively.
# [8] = high dosage group (400 mg/kg/day p.o.)
# [9] = both dosage groups (100 and 400 mg/kg/day p.o.)
smiles,measurement,setting,value
O=C1[C@H](Cc2ccc(O)cc2)N2C(=O)CCN(C(=O)NCc3ccccc3)[C@H]2CN1Cc1cccc2ccccc12 [ICG-001],minimal interaction between β-catenin and p300,[1],not blocked
same,amount of β-catenin co-immunoprecipitated with p300,[1]; 10 μM,slightly increases
same,Immunoprecipitation of β-catenin with CBP,[2],inhibited
CCCCCCCCCCCC(=O)Oc1ccc(C[C@H]2C(=O)N(Cc3cccc4ccccc34)C[C@H]3N2C(=O)CN(Cc2cc(-c4ccccc4)no2)N3C(=O)NCc2ccccc2)cc1 [[3+2]-121B],food consumption per mouse versus Vehicle group,[3]; high (500 uM),no significant differences
same,inflammation and inflammatory cell influx (histological analysis),[3]; high (500 uM),significant reduction
same,TEWL (transepidermal water loss) compared to vehicle control,"[3]; high (500 uM) ointment, listed as 121B",significant decrease
same,mean body weight versus Vehicle group,[3]; high (500 uM),no significant differences
"CCOC(=O)CNC(=O)CNC(=O)Oc1ccc(C[C@H]2C(=O)N(Cc3cccc4ncccc34)C[C@H]3N2C(=O)CN(Cc2cc(-c4ccccn4)no2)N3C(=O)NCc2ccccc2)cc1 [[3+2]-120B, ethyl 2-(2-((4-(((6S,9aS)-1-(benzylcarbamoyl)-4,7-dioxo-2-((3-(pyridin-2-yl)isoxazol-5-yl)methyl)-8-(quinolin-5-ylmethyl)octahydro-1H-pyrazino[2,1-c][1,2,4]triazin-6-yl)methyl)phenoxy)carbonylamino)acetamido)acetate]",overall survival and Ashcroft scoring versus historical control data for pirfenidone and nintedanib,[4]; 400 mg/kg/day p.o.,compared favorably
same,extracellular collagen deposition (Masson's trichrome blue staining) compared to bleomycin saline treated historical control,[4],significant reduction
same,survival,[4],all mice survived
same,Ashcroft scores,[4]; [8],significant decrease
same,lung weights,[4]; [8],significant decrease
same,weight gain,[4]; [8],significant increase
same,Ashcroft score,[4]; high dose (400 mg/kg/day p.o.),2.1 +/− 0.7
same,Left lung weight,[4]; high dose (400 mg/kg/day p.o.),65 ± 13 mg
same,Post-caval lobe weight,[4]; high dose (400 mg/kg/day p.o.),21 ± 6 mg
same,Body weight,[4]; high dose (400 mg/kg/day p.o.),19.5 ± 1.6 g
same,Ashcroft score,[4]; low dose p.o.,3.9 +/− 1.4
same,Left lung weight,[4]; low dose p.o.,77 ± 15 mg
same,Post-caval lobe weight,[4]; low dose p.o.,39 ± 17 mg
same,Body weight,[4]; low dose p.o.,15.1 ± 3.8 g
C[C@H]1[C@H]2N(C(=O)CN(C)N2C(=O)NCc2ccccc2)[C@@H](Cc2ccc(OP(=O)(O)O)cc2)C(=O)N1Cc1cccc2cccnc12 [PRI-724],safety,[5]; 10 and 40 mg/m^2/day for 12 weeks (1 week on and 1 week off),safe
same,plasma exposure of the drug,[5]; 10 and 40 mg/m^2/day for 12 weeks,dose-dependent
same,liver histology and Child Pugh scores,"[5]; 10 and 40 mg/m^2/day for 12 weeks, in several patients",improvement
same,proliferation of T memory stem cells (SCM) and central memory T-cells (CM),[6],decrease
CS(=O)(=O)O.O=C1[C@H](Cc2ccc(O)cc2)N2C(=O)CN(Cc3cc(-c4ccccn4)no3)N(C(=O)NCc3ccccc3)[C@H]2CN1Cc1cccc2ncccc12 [[3+2]-120A],overall survival and Ashcroft scoring versus historical control data for pirfenidone and nintedanib,[4]; 100 mg/kg/day p.o.,compared favorably
same,overall survival and Ashcroft scoring versus historical control data for pirfenidone and nintedanib,[4]; 400 mg/kg/day p.o.,compared favorably
same,extracellular collagen deposition (Masson's trichrome blue staining) compared to bleomycin saline treated historical control,[4],significant reduction
same,survival,[4],all mice survived
same,Ashcroft scores,[4]; [9],significant decrease
same,lung weights,[4]; [9],significant decrease
same,weight gain,[4]; [9],significant increase
same,Ashcroft score,[4]; high dose (400 mg/kg/day p.o.),2.5 +/− 2.0
same,Left lung weight,[4]; high dose (400 mg/kg/day p.o.),66 ± 33 mg
same,Post-caval lobe weight,[4]; high dose (400 mg/kg/day p.o.),25 ± 18 mg
same,Body weight,[4]; high dose (400 mg/kg/day p.o.),16.9 ± 3.8 g
same,Ashcroft score,[4]; low dose p.o.,2.2 +/− 1.7
same,Left lung weight,[4]; low dose p.o.,65 ± 19 mg
same,Post-caval lobe weight,[4]; low dose p.o.,21 ± 9 mg
same,Body weight,[4]; low dose p.o.,18.2 ± 0.7 g
same,mice survived,[7]; 100 mg/kg/day p.o. (A-low),7 out of 8
same,mice survived,[7]; 400 mg/kg/day p.o. (A-high),8 out of 8
CCCCCCCCCCCC(=O)Oc1ccc(C[C@H]2C(=O)N(Cc3cccc4ccccc34)C[C@H]3N2C(=O)CN(Cc2cc(-c4ccccc4)no2)N3C(=O)NCc2ccccc2)cc1 [[3+2]-121A],dermatitis scores compared to vehicle control,[3]; high (500 uM) ointment,significantly decreased
same,TEWL (transepidermal water loss) compared to vehicle control,[3]; high (500 uM) ointment,significantly decreased
same,food consumption per mouse versus Vehicle group,[3]; low (100 uM),no significant differences
same,inflammation and inflammatory cell influx (histological analysis),[3]; low (100 uM),significant reduction
same,dermatitis scores compared to vehicle control,[3]; low (100 uM) ointment,significantly decreased
same,TEWL (transepidermal water loss) compared to vehicle control,[3]; low (100 uM) ointment,significantly decreased; also recorded: significant decrease
same,dermatitis severity score on the back compared with Vehicle group,"[3]; low (100 uM), Days 10 and 14",significant decrease
same,mean body weight versus Vehicle group,[3]; low (100 uM),no significant differences
same,total dermatitis severity score compared with Vehicle control group,"[3]; low (100 uM), primarily on the back, Days 10 and 14",significant decrease
